Consider 6 compounds from publication PMC3566779 (The Journal of neuroscience : the official journal of the …, 2012).

Experiment [1] deals with Wistar rats. The settings on record: TRPV1 antagonist; ref Garami et al., 2010; Steiner et al., 2007; cited from earlier work.
The subject of experiment [2] is Wistar rats. The experiment in a line: BAT thermometry. The format is in vivo, rat. The settings on record: 1 mg/kg i.v. at 32°C.
Experiment [3] concerns other TRP channels. The experiment in a line: TRP selectivity assays in CHO cells. The format is cell-based. The settings on record: read-out: IC50, block of other TRP channels.
Experiment [4] has as its target rat TRPM8 (Rattus norvegicus, UniProt Q8R455). The experiment in a line: Aequorin luminescence Ca2+ assay, CHO cells stably expressing rat TRPM8. Type of experiment: cell-based.
In experiment [5] the test system is native TRPM8 channels in murine primary sensory neurons. The experiment in a line: Ratiometric Ca2+ imaging of trigeminal or dorsal root ganglion neurons. Type of experiment: cell-based, mouse.
The subject of experiment [6] is Wistar rats. The experiment in a line: Preferred Ta and abdominal Tb in rats, thermogradient setup. The format is in vivo, rat.
Experiment [7] has as its system Trpm8+/+ mice. The experiment in a line: Abdominal Tb in Trpm8+/+ mice, telemetry setup. The settings on record: Ta 26°C. Type of experiment: in vivo, mouse.
The subject of experiment [8] is Wistar rats. The experiment in a line: Deep. The format is in vivo, rat.
The subject of experiment [9] is c-Fos expression in the lateral parabrachial nucleus. Kind of experiment: Cold-induced c-Fos immunohistochemistry in the lateral parabrachial nucleus. Type of experiment: in vivo, rat. As to conditions: rats, 6 mg/kg i.v. pretreatment, 2-h cold exposure (4°C).
Experiment [10] relates to Wistar rats. Kind of experiment: Colonic Tb and oxygen consumption in rats, respirometry setup. The format is in vivo, rat. The settings on record: 6 mg/kg i.v. over 20 min, Ta 19°C.
Experiment [11] concerns Trpm8−/− mice. Kind of experiment: Abdominal Tb in Trpm8−/− mice, telemetry setup. Type of experiment: in vivo, mouse. As to conditions: Ta 26°C.
Experiment [12] has as its target TRPV4 (Homo sapiens, UniProt Q9HBA0). The experiment in a line: TRPV4 aequorin assay, 4α-PDD activation. The format is cell-based. The settings on record: read-out: IC50 for TRPV4; 1 μM 4α-PDD as agonist.
Experiment [13] deals with TRPA1 (Homo sapiens, UniProt O75762). The experiment in a line: TRPA1 aequorin assay, allylisothiocyanate activation. As to conditions: read-out: IC50 for TRPA1; 80 μM allylisothiocyanate as agonist. The format is cell-based.
Chain of TRPA1 (O75762 whole entry, species assumed): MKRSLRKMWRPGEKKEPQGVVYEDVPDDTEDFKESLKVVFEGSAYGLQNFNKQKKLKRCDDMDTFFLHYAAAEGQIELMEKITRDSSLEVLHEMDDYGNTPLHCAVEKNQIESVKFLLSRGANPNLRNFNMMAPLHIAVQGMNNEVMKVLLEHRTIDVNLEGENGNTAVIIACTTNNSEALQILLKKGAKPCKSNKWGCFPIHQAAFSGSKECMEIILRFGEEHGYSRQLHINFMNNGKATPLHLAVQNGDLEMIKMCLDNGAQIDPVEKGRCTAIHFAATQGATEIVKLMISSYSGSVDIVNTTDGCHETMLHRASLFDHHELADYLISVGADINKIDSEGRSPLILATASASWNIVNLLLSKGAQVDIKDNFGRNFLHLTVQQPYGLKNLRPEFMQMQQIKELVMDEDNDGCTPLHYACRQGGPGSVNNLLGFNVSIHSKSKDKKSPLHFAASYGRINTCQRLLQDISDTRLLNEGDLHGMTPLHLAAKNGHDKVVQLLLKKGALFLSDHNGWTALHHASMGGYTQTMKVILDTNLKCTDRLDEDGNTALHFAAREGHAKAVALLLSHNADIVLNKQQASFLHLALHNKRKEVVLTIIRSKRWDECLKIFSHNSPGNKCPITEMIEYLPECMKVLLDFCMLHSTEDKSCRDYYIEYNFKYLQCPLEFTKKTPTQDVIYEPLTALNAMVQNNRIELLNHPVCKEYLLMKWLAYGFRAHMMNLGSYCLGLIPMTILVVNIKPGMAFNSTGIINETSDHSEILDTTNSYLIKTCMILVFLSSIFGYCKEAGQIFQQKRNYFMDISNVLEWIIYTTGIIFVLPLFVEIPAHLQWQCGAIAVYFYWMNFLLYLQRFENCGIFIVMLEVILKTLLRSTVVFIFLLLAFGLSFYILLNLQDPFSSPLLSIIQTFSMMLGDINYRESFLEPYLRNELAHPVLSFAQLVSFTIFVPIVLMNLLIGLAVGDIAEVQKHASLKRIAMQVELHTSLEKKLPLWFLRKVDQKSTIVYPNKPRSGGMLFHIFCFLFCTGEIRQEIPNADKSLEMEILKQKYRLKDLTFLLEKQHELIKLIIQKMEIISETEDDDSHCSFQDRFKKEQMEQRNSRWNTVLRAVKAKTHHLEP
In experiment [14] the target is TRPV1 (Homo sapiens, UniProt Q8NER1). Kind of experiment: TRPV1 assay, capsaicin activation. The format is cell-based.
Chain of TRPV1 (Q8NER1 whole entry, species assumed): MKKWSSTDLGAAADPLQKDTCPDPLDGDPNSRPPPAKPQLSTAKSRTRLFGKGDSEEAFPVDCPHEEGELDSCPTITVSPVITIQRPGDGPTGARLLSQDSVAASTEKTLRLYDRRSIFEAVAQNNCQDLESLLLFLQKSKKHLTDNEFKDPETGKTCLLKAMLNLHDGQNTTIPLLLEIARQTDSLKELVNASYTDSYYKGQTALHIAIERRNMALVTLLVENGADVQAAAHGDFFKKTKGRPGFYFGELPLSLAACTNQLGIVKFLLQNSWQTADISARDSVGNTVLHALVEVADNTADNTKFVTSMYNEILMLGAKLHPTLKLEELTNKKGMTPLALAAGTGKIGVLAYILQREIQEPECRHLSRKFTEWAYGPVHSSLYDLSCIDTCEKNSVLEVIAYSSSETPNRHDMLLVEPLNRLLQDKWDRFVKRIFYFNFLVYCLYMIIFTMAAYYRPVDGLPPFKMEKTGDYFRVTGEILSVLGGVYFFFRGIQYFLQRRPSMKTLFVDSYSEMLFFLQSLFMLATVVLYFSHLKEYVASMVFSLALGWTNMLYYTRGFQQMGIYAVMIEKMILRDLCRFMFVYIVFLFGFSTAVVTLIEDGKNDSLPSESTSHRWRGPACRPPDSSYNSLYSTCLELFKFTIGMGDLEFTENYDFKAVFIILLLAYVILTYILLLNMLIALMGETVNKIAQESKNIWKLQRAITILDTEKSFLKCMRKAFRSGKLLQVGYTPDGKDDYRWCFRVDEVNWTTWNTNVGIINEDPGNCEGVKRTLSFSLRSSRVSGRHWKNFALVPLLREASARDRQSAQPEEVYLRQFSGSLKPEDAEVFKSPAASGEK

Molecules are shown by their SMILES.

Chain of rat TRPM8 (Q8R455 whole entry): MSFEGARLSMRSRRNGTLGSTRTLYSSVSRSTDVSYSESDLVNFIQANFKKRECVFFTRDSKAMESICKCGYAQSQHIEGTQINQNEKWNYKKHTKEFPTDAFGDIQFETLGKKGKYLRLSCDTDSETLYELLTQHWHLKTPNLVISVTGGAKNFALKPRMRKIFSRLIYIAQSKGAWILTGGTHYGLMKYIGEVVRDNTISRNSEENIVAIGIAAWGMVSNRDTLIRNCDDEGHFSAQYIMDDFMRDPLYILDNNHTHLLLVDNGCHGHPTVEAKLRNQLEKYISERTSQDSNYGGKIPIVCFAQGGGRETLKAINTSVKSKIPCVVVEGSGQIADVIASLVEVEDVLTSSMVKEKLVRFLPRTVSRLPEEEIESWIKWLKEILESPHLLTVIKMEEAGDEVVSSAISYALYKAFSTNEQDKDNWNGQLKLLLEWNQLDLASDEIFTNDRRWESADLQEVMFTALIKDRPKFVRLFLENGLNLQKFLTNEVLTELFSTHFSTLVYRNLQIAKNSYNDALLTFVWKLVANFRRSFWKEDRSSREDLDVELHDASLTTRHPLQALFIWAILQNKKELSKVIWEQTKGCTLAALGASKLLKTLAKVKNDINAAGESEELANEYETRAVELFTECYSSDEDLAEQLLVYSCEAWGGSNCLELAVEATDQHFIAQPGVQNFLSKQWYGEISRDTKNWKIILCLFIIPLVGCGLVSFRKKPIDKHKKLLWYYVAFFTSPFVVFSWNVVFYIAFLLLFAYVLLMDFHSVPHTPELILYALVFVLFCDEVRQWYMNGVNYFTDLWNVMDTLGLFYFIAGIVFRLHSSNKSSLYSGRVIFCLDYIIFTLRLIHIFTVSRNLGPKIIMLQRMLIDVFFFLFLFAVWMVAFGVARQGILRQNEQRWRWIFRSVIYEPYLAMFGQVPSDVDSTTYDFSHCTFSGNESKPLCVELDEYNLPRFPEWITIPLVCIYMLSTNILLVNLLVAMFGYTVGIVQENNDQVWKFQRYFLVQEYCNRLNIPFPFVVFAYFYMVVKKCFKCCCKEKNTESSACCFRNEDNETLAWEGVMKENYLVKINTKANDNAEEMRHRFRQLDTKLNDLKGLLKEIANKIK
Chain of TRPV4 (Q9HBA0 whole entry, species assumed): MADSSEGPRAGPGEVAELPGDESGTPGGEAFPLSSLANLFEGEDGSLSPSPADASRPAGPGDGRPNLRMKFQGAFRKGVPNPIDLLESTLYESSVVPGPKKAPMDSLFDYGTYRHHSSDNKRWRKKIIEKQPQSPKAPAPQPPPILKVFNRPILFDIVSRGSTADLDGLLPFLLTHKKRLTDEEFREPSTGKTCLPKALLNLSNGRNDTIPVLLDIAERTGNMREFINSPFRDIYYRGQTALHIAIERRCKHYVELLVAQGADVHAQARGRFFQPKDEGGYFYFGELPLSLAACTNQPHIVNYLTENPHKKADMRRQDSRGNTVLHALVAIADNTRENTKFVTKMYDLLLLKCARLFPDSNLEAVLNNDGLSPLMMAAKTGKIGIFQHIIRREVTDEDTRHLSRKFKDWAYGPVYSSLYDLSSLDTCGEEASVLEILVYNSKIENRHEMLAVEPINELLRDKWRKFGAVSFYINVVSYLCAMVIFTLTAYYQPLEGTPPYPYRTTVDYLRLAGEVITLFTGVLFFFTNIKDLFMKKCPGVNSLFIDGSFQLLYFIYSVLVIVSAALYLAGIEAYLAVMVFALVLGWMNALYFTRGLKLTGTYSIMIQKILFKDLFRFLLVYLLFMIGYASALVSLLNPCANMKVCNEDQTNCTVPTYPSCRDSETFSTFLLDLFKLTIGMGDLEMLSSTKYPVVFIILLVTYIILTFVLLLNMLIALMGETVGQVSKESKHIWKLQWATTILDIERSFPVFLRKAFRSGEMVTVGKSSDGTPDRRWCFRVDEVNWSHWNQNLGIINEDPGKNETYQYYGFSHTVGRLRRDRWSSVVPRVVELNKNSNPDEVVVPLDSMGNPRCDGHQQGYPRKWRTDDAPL

For `O=C(/C=C/c1ccc(C(F)(F)F)nc1N1CCCCC1)Nc1cccc2c1CC(O)CC2` (stereo not drawn) [AMG0347], the Thermal response entry in [1] is given as “cause hyperthermia”.
Usually IC50 stands for the concentration that gives 50% inhibition. Consider `COc1cc(CN(CCN)C(=O)c2cccs2)ccc1OCc1ccccc1.Cl` [M8-B, N-(2-aminoethyl)-N-(4-(benzyloxy)-3-methoxybenzyl)thiophene-2-carboxamide hydrochloride], for which the “BAT thermogenic response to cold” value in experiment [2] (then 11°C, p = 0.105) is given as “tended to be less pronounced”. The “Nadir of Tb” value in experiment [2] (then transferred to 11°C, at 150 min) was ~ 36.2 °C. The IC50 in experiment [3] is above 20000 nM; in experiment [4] (IC50, inhibition of rat TRPM8 activation by cold, cold (10°C)), 7.8 ± 1.1 nM; in experiment [4] (IC50, inhibition of rat TRPM8 activation by icilin, icilin (1 μM)), 26.9 ± 12.1 nM. Also, the “Number of cold-responsive neurons” value in experiment [5] (M8-B 10 μM, cold (15°C), 19 ± 3% without treatment) stood at 4 ± 1%. In [5] (menthol 250 μM), the “Number of neurons responsive to menthol” value was “significantly decreased”. The “Effect on hyperthermic response to menthol” value in experiment [6] (rats, M8-B 1 mg/kg i.v. pretreatment, p = 0.0009) is recorded as “significantly attenuated”. Moreover, the “Effect on warmth-seeking response to menthol” value in [6] (rats, M8-B 1 mg/kg i.v. pretreatment, p = 0.096) is on record as “tended to attenuate”. In experiment [7] (6 mg/kg i.p.), the “Decrease in abdominal Tb” value was ~ 0.8 °C. In addition, the “Heat loss index (HLI) when Tb was 37.5°C” value in experiment [8] (1 mg/kg i.v. at 32°C then 21°C, controls HLI ~0) is reported as ~ 0.4. Also, the “Inter-treatment Tb difference (M8-B vs vehicle)” value is “exceeded 1 °C” in [8] (1 mg/kg i.v. at Ta 32°C, then transferred to 11°C) and “exceeded 1 °C” in experiment [8] (1 mg/kg i.v. at Ta 32°C, then transferred to 14°C). The “Delay of the development of tail skin vasoconstriction” value in experiment [8] (1 mg/kg i.v. at Ta 32°C, then transferred to 21°C) was ~ 5 min. For the same compound, the “Effect on Tb” value in [8] (1 mg/kg i.v. over 40 min at Ta 32°C, then transferred to 21°C) was “significant decrease in Tb”; in [8] (1 mg/kg i.v., constant Ta 19°C, data not shown), “did not affect Tb”; in experiment [8] (2.5 mg/kg intracerebroventricularly, Ta 19°C) it was “no effect”; in experiment [8] (2.5 mg/kg intrathecally, Ta 19°C) it was “no effect”; in [8] (6 mg/kg intrathecally, Ta 19°C), “effective in decreasing Tb”. In addition, the “Changes in Tb compared to vehicle” value is reported as “no significant changes” in [8] (1 mg/kg i.v., constant Ta 15°C) and “no significant changes” in [8] (1 mg/kg i.v., constant Ta 32°C). Moreover, the “Tail Tsk at which M8-B caused a decrease in Tb (threshold, two-line model)” value in experiment [8] (1 mg/kg i.v., experiments of Fig. 6B–H) was at most 23.2 °C. In addition, in [8] (6 mg/kg i.v. over 20 min, Ta 19°C), the “Decrease in colonic Tb compared to vehicle” value is ~ 0.9 °C. In addition, the “Threshold intravenous dose for a significant decrease in deep Tb” value in [8] (i.v., Ta 19°C) is reported as 2.5 mg/kg. In addition, the “Decrease in number of cold-induced c-Fos-positive neurons, LPBE” value in experiment [9] (p = 0.027) is listed as 48%. For the same compound, the “Decrease in number of cold-induced c-Fos-positive neurons, LPBC” value in [9] (p = 0.178) was determined as 41%. Moreover, the “VO2 within the first hour after infusion” value in experiment [10] (from 19 ml/kg/min) was around 15 mL/min/kg. Also, in experiment [10] (from ~37.3°C), the “Colonic Tb within the first hour after infusion” value was ~ 36.5 °C. Also, the “Effect on abdominal Tb” value in [11] (6 mg/kg i.p.) is “not affected”.
Regarding `CC1CCC(C(C)C)C(O)C1` (stereo not drawn) [menthol, reference compound], in [6] (rats pre-infused with vehicle, 10 g of 0.5% menthol ointment epidermally), the “Rise in Tb after menthol” value is ~ 1 °C.
For the compound `Cl.Cl.Cl.Cl.Cl.Cl.N.N.N.N.N.N.N.N.N.N.N.N.N.N.[O-2].[O-2].[Ru+3].[Ru+3].[Ru+4]` [ruthenium red], the IC50 in [12] stood at 24 nM; in [13], 367 nM.
In the case of `CC(C)(C)c1ccc(/C=C/C(=O)Nc2ccc3c(c2)OCCO3)cc1` [AMG9810, (E)-3-(4-t-butylphenyl)-N-(2,3-dihydrobenzo[b][1,4]dioxin-6-yl)acrylamide], the IC50 in [14] is 86 nM.
Take `C=C(C)[C@]12C[C@@H](C)[C@@]34O[C@](Cc5ccccc5)(O[C@@H]1[C@@H]3C=C(COC(=O)Cc1ccc(O)c(OC)c1)C[C@]1(O)C(=O)C(C)=C[C@@H]41)O2` [RTX, resiniferatoxin, reference compound]: the “Effect on abdominal Tb” value in experiment [7] (150 ng/kg i.p.) was “readily produces hypothermia”. In addition, the “Decrease in Tb” value in experiment [11] (150 ng/kg i.p.) was ~ 2.5 °C.
